Source: the SangsterLogP compilation

Row | logP | Compound
1 | 2.38 | CC1(C(=O)O)CCCCC1
2 | 2.27 | C/C=C/C(=C\CC)C(=O)O
3 | 3.34 | CCCCC(CCCC)C(=O)O
4 | 2.3 | CCCCN(CCCC)C(=O)CCC(=O)O
5 | 1.31 | CCCC(CC(C)=O)C(=O)O (configuration not stated)
6 | 2.57 | CCCC(CCC)C(=O)O

Second part, the compound before the results:

Row | Compound | logP
7 | CCCCCCCc1nn[nH]n1 | 2.01
8 | O=C(O)CC1CCCCC1 | 2.31
9 | CCC(C)(C)C(=O)O | 1.9
10 | CCC=C(CCC)C(=O)O | 2.44
11 | CC(C)CCn1cnnn1 | 1.29
12 | CCC(CC)CC(=O)O | 2.19
